# Assay results taken from publication PMC8870237, “Improved Multimodal Tumor Necrosis Imaging with IRDye800CW-DOTA Conjugated to an Albumin-Binding Domain” (Cancers, 2022).
# Tests used:
# MCF7-Luc2 tumors = assay: Tumor uptake in doxorubicin- or saline-treated MCF7-Luc2 tumor-bearing mice; assay type: in vivo, mouse; settings: 24 h p.i., ±SEM
# Experimental: (§1) The quadruple modality imaging procedure is illustrated in Figure S21. The tumor-bearing mice were injected with [^111In]3 (20 MBq, 2 nmol) in 200 µL PBS into the tail vein. The following day, the mice fasted for four hours before they were injected with [^18F]FDG (10 MBq, 200 µL) in PBS. At 24 h p.i. of [^111In]3 and 1 h p.i. of [^18F]FDG, FLI imaging was performed with a 730 nm excitation and 760 nm emission filter for 400 ms with 4 × 4 binning. Then, the mice received an intraperitoneal injection of D-luciferin (150 mg/kg) maintaining the position of the mice in the bed unaltered. During the onset of the bioluminescence signal, PET/SPECT imaging was performed of the tumors with a 2 cm axial field of view over a total scan time of 30 min, followed by a 2 min full-body CT. Finally, BLI imaging was performed with an open filter for 400 ms with 4 × 4 binning. Imaging was performed under isoflurane anesthesia whilst maintaining the body temperature constant.
# Six mice were inoculated bilaterally with MCF7-Luc2 cells (3.0 × 10^6), suspended in 30 µL PBS:Matrigel (1:1; v/v). On days 14, 16, and 18 after inoculation, the tumor-bearing mice received either doxorubicin (5 mg/kg, Janssen Pharmaceuticals, Beerse, Belgium) or a saline solution via i.v. injection. On days 21 and 22 after inoculation, the mice underwent the FLI, BLI, and PET/SPECT/CT imaging procedure (vide supra).
# After the final imaging experiments, the mice were sacrificed by cervical dislocation, tumors and organs were collected, weighted, and activity was accurately quantified by γ-counting to determine radioactivity uptake in the percentage of injected dose per gram (%ID/g). After γ-counting, the tumors were frozen in liquid nitrogen and stored at −80 °C overnight. Adjacent cryosections (10 µm) were prepared of the tumor centers for autoradiography. The sections were stored at −20 °C for the radioactivity to decay, before 800 nm fluorescence imaging and histochemical dead cell staining.
# [1] = In vivo stability (radio-HPLC of urine 1 h after injection); parameters: species or system mouse; settings: mice, i.v., 1 h p.i.
# Description: After an hour, the mice were sacrificed by cervical dislocation and blood and urine were collected, which were frozen in liquid nitrogen directly after extraction. […] The supernatant was collected and analyzed by radio-HPLC (Method-D).
# 4T1-Luc2 cells = assay: In vitro dead/alive cell binding assay (fluorescence and γ-counting); assay type: cell-based, mouse; settings: indium-111 labeled, 100 nM, 2.5 MBq/nmol, EtOH-killed or alive 4T1-Luc2 cells, γ-counting
# Experimental: The 4T1-Luc2 cells were cultured in RPMI-1640 medium containing 10% fetal bovine, penicillin (100 U/mL), and streptomycin ([…]) 37 °C under a humidified atmosphere with 5% CO2. The cells were seeded in 24 well plates (1 × 10^5 cells per well). The next day, the cells were killed with EtOH (70%, 50 μL) or kept alive and incubated for 30 min at 37 °C with 100 nM of the NACAs in culturing medium. The plate was then imaged on an Odyssey (Li-Cor, 800 nm laser intensity 5.0).
# Similarly, these killed and alive cells were incubated with the indium-111 labeled NACAs (100 nM, 2.5 MBq/nmol) in culturing medium. The cells were washed with PBS and collected with NaOH (1.0 M) for γ-counting. These experiments were performed as triplicates.
# EMT6-Luc2 tumors = assay: Tumor uptake in EMT6-Luc2 tumor-bearing mice; assay type: in vivo, mouse; settings: untreated, 24 h p.i., ±SEM
# Experimental: as §1, with “constant. […]” for “constant.”
# After the final imaging experiments, the mice were sacrificed by cervical dislocation, tumors and organs were collected, weighted, and activity was accurately quantified by γ-counting to determine radioactivity uptake in the percentage of injected dose per gram (%ID/g). […] The sections were stored at −20 °C for the radioactivity to decay, before 800 nm fluorescence imaging and histochemical dead cell staining.
structure (smiles),measurement,setting,value
CC1(C)C(=CC=C2CCCC(C=CC3=[N+](CCCCCC(=O)NCCCC[C@H](NC(=O)CCCc4ccc(I)cc4)C(=O)NCc4ccc(CNC(=O)CN5CCN(CC(=O)[O-])CCN(CC(=O)[O-])CCN(CC(=O)[O-])CC5)cc4)c4ccc(S(=O)(=O)O)cc4C3(C)C)=C2Oc2ccc(S(=O)(=O)O)cc2)N(CCCCS(=O)(=O)O)c2ccc(S(=O)(=O)O)cc21.[111In+3] [[^111In]3],tumor uptake of [111In]3,"MCF7-Luc2 tumors; after doxorubicin treatment (5 mg/kg i.v., 3 injections)",2.25 ± 0.16 %ID/g
same,tumor uptake of [111In]3,MCF7-Luc2 tumors; after saline treatment (control),1.74 ± 0.08 %ID/g
same,"in vivo stability, remained stable",[1],> 95%
same,"dead/alive cell binding, radioactivity",4T1-Luc2 cells,increased as compared to [^111In]1
same,tumor uptake of [111In]3,EMT6-Luc2 tumors,2.81 ± 0.21 %ID/g
